# From PubChem BioAssay AID1963964 (Molecular Pharmacology Branch, DTP, NCI, 2024)
# Test system: 997726-040-R-J2-PDC tumor spheroids, viability
# Test: Anticancer human tumor 997726-040-R-J2-PDC patient-derived squamous cell lung carcinoma cell line growth inhibition [PI3K]
# Conditions: spheroids with HUVEC and MSC; for IC50: curve of first compound; for viability, T/C: stronger effect = lower value
# Excerpt: Combinatorial screen of targeted agents with the PI3K inhibitors inavolisib, alpelisib, duvelisib, and copanlisib in multi-cell type tumor spheroids
# A high-throughput screen of multi-cell type tumor spheroids was designed to identify active combinations of targeted small molecules and PI3K pathway inhibitors. Complex spheroids include a stromal component modeled by human endothelial cells (HUVEC) and fibroblasts modeled by human mesenchymal stem cells (MSCs). The concentration ranges selected for each drug and investigational agent were based upon clinically achievable concentrations if the clinical Cmax of the agent was known.
# Compounds. The drugs and investigational agents: inavolisib (NSC800729), alpelisib (NSC765974), duvelisib (NSC772469), copanlisib (NSC816437), ipatasertib (NSC767898), afuresertib (NSC778305), talazoparib (NSC767125), sapanisertib (NSC764658), selumetinib (NSC741078), tovorafenib (DAY101, NSC766906), vemurafenib (NSC761431), ravoxertinib (NSC781343), sotorasib (NSC818433), MRTX1133 (NSC 836407), abemaciclib (NSC 768073), palbociclib (NSC758247), venetoclax (NSC 766270), SY5609 (NSC837396), enzalutamide (NSC755605), and darolutamide (NSC825331), were obtained from the National Cancer Institute (NCI) Developmental Therapeutics Program Chemical Repository. The FDA-approved anticancer drug set is available from the NCI Developmental Therapeutics Program. […] The stock solutions were prepared in dimethyl sulfoxide (DMSO, Sigma-Aldrich, St. Louis, MO, cat. D2650) at 800-fold the tested concentration and stored at -70 degrees C prior to their use. All drugs and investigational agents were tested over a range starting from a high concentration at or near the clinical Cmax and decreasing in half-log increments. If the clinical Cmax for an agent had not been determined, the highest concentration tested was 10 microM.
# Cell Culture. All cells were maintained in an incubator at 37 degrees C and 5% CO2 with 95% humidity. The PDC lines were cultured according to standard operating procedures established by the NCI PDMR (https://pdmr.cancer.gov/sops/default.htm). All PDCs were thawed and cultured in Matrigel-coated flasks prepared with a working solution of 1X Ham's F-12 nutrient mix, without supplementation (Invitrogen, Waltham, MA, cat. 11765054), 100 U/mL penicillin-streptomycin (Invitrogen, cat. 15140122), and 2.5% Matrigel (Corning Inc., Corning, NY, cat. 354248) for the first three passages. The 354836-022-R-J1-PDC, 475296-252-R-J1-PDC, and 997726-040-R-J2-PDC lines were cultured in 6A media, which includes advanced DMEM/F-12 (Thermo Fisher Scientific, cat. 12634028), 10 mM HEPES (Thermo Fisher Scientific, cat. 15630080), 1X GlutaMAX supplement (Thermo Fisher Scientific, cat. 35050061), 0.1 mg/mL primocin (InvivoGen, San Diego, CA, cat. ant-pm-2), 10% defined fetal bovine serum, heat inactivated (HyClone Laboratories Inc., Logan, UT, cat. SH30070.03HI), 50% L-WRN conditioned media (ATCC, cat. CRL-3276), 1.25 mM N-Acetyl-L-cysteine (Sigma-Aldrich, cat. A9165), 10 mM nicotinamide (Sigma-Aldrich, cat. N0636), 1X B-27 supplement (Thermo Fisher Scientific, cat. 17504044), 1X N-2 supplement (Thermo Fisher Scientific, cat. 17502048), and 10 microM Y-27632 dihydrochloride (Tocris Bioscience, Bristol, United Kingdom, cat. 1254). The 624824-186-R-J2-PDC line was cultured in 6C/Colon 1B media, which includes all 6A media components plus 50 ng/mL human EGF recombinant protein (Thermo Fisher Scientific, cat. PHG0311). […]
# 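Note: spheroids exposed to compounds for seven days before readout.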
compound,measurement,setting,value
CC(C)n1nc(-c2ccc3oc(N)nc3c2)c2c(N)ncnc21 + CC(Nc1ccc2c(c1)OCCn1cc(N3C(=O)OCC3C(F)F)nc1-2)C(N)=O,IC50,second compound 0.00316 µM,17.4 nM
same,IC50,second compound 0.01 µM,16.5 nM
same,IC50,second compound 0.0316 µM,3.27 nM
same,IC50,second compound 0.1 µM,< 0.316 nM
same,IC50,second compound 0.316 µM,< 0.316 nM
same,IC50,second compound 1 µM,< 0.316 nM
same,"viability, T/C","second compound 0.00316 µM, first compound 0.000316 µM",79%
same,"viability, T/C","second compound 0.00316 µM, first compound 0.001 µM",88.2%
same,"viability, T/C","second compound 0.00316 µM, first compound 0.00316 µM",73.5%
same,"viability, T/C","second compound 0.00316 µM, first compound 0.01 µM",59.8%
same,"viability, T/C","second compound 0.00316 µM, first compound 0.0316 µM",38.9%
same,"viability, T/C","second compound 0.00316 µM, first compound 0.1 µM",7.14%
same,"viability, T/C","second compound 0.01 µM, first compound 0.000316 µM",74.8%
same,"viability, T/C","second compound 0.01 µM, first compound 0.001 µM",68.5%
same,"viability, T/C","second compound 0.01 µM, first compound 0.00316 µM",71.3%
same,"viability, T/C","second compound 0.01 µM, first compound 0.01 µM",59.1%
same,"viability, T/C","second compound 0.01 µM, first compound 0.0316 µM",37.4%
same,"viability, T/C","second compound 0.01 µM, first compound 0.1 µM",6.85%
same,"viability, T/C","second compound 0.0316 µM, first compound 0.000316 µM",54.6%
same,"viability, T/C","second compound 0.0316 µM, first compound 0.001 µM",61.3%
same,"viability, T/C","second compound 0.0316 µM, first compound 0.00316 µM",48.7%
same,"viability, T/C","second compound 0.0316 µM, first compound 0.01 µM",38.6%
same,"viability, T/C","second compound 0.0316 µM, first compound 0.0316 µM",26.6%
same,"viability, T/C","second compound 0.0316 µM, first compound 0.1 µM",6.47%
same,"viability, T/C","second compound 0.1 µM, first compound 0.000316 µM",44.2%
same,"viability, T/C","second compound 0.1 µM, first compound 0.001 µM",39.5%
same,"viability, T/C","second compound 0.1 µM, first compound 0.00316 µM",42.5%
same,"viability, T/C","second compound 0.1 µM, first compound 0.01 µM",33%
same,"viability, T/C","second compound 0.1 µM, first compound 0.0316 µM",20.9%
same,"viability, T/C","second compound 0.1 µM, first compound 0.1 µM",4.52%
same,"viability, T/C","second compound 0.316 µM, first compound 0.000316 µM",32.5%
same,"viability, T/C","second compound 0.316 µM, first compound 0.001 µM",33.9%
same,"viability, T/C","second compound 0.316 µM, first compound 0.00316 µM",27.9%
same,"viability, T/C","second compound 0.316 µM, first compound 0.01 µM",24.9%
same,"viability, T/C","second compound 0.316 µM, first compound 0.0316 µM",13.5%
same,"viability, T/C","second compound 0.316 µM, first compound 0.1 µM",3.29%
same,"viability, T/C","second compound 1 µM, first compound 0.000316 µM",29.1%
same,"viability, T/C","second compound 1 µM, first compound 0.001 µM",26.9%
same,"viability, T/C","second compound 1 µM, first compound 0.00316 µM",21.4%
same,"viability, T/C","second compound 1 µM, first compound 0.01 µM",20.6%
same,"viability, T/C","second compound 1 µM, first compound 0.0316 µM",9.52%
same,"viability, T/C","second compound 1 µM, first compound 0.1 µM",2.78%
